Patent US9907479B2, “Contribution of oxidative stress to AF electrograms” (NORTHWESTERN UNIVERSITY, priority 2013, dated 2018)

Experiments:
AF EGMs in HF [1] = assay: Acute ROS blockade during induced AF in pacing-induced HF dogs, epicardial AF EGM mapping; assay type: in vivo, dog; conditions: for effect on AF EGM parameters (DF, OI, FI, ShEn): apocynin 10 mg/kg
Method: HF: In 4 animals, rapid RV pacing was performed at 240 beats/min for 3-4 weeks to induce HF. AF was then induced and AF EGMs recorded by an epicardial, multielectrode plaque (130 electrodes; […]). Apocynin (an NAPDH oxidase inhibitor) was then given (10 mg/kg) acutely. After apocynin administration, AF slowed and then terminated within 5 minutes (in every experiment). […] After apocynin washout (90 minutes), AF was re-induced and mito-TEMPO was given (0.7 mg/kg). […] The atrial tissue was then removed and examined for O^2- generation using lucigenin chemiluminescence. […] Thus, AF EGMs in HF are very sensitive to acute blockade of NADPH oxidase and mitochondrial ROS and AF EGM organization in response to ROS blockade closely correlates with the amount of O^2- in underlying tissue.

AF EGMs in HF [2] = assay: EGM-guided targeted gene injection at ROS responsive PLA quadrant in HF dog, AF EGM mapping; assay type: in vivo; conditions: one HF dog, given during AF, 10 mg/kg, before gene injection
Method: In one dog, HF was induced by RV pacing at 240 bpm×3 weeks. AF was then induced and recorded in the PLA by high density epicardial plaques (130 electrodes; […]). […] Real time analysis of AF EGMs was performed. The PLA was divided into 4 equal quadrants as shown in FIG. 15A and AF characteristics analyzed for each quadrant. […] One week later, AF mapping was performed again, in the absence and presence of apocynin. […] NOX2 expression (assessed by RT-PCR) was 70% lower in the injected quadrant than in neighboring, un-injected PLA.

AF EGMs in a RAP model = assay: Acute ROS blockade in rapid atrial pacing (RAP) persistent AF model, AF EGM mapping; assay type: in vivo, dog
Method: RAP: In 2 animals, rapid atrial pacing was performed at 600 bpm for 3-4 weeks to induce persistent AF. Apocynin was given as in HF above.

[3] = HF dogs, induced AF, mito-TEMPO 0.7 mg/kg
[4] = RAP dogs (600 bpm, 3-4 weeks), persistent AF, apocynin given as in HF

In the case of `CC1(C)CC(NC(=O)C[P+](c2ccccc2)(c2ccccc2)c2ccccc2)CC(C)(C)N1[O]` [mito-TEMPO], the “effect on AF (slowing, termination)” value (AF EGMs in HF [1]; HF dogs, AF re-induced after apocynin washout (90 minutes), mito-TEMPO 0.7 mg/kg) is reported as “gradual slowing and termination of AF in every animal” and the “effect on AF EGM parameters (DF, OI, FI, ShEn)” value (AF EGMs in HF [1]; [3]) is reported as “organization of all AF EGM parameters”.
With `COc1cc(C(C)=O)ccc1O` [apocynin, Apocynin] the “effect on AF” value (AF EGMs in HF [2]) was “organization of AF followed by AF termination”, the “change in DF” value (AF EGMs in a RAP model; [4]) was “significant decrease” and the “change in OI” value (AF EGMs in a RAP model; [4]) was “increase”. The “termination of AF” value (AF EGMs in a RAP model; RAP dogs, 2 animals) was “In one animal, there was termination of AF”, the “time to AF termination after administration” value (AF EGMs in HF [1]; HF dogs (RV pacing 240 beats/min, 3-4 weeks), induced AF, 10 mg/kg given acutely, in every experiment) was no more than 5 min and the “effect on AF EGM parameters (DF, OI, FI, ShEn)” value (AF EGMs in HF [1]; [3]) was “organization of all AF EGM parameters”.
